Data: US11400059B2, “Treatment of pain and/or pain related symptoms associated with dysmenorrhea” (ALYRA BIOTECH PTY LTD, priority 2017, dated 2022)

What was measured:
Human TLR3 = target: T1, Human TLR3 (Homo sapiens, UniProt O15455); experiment: Human TLR antagonist screening, NF-κB SEAP reporter in HEK293 cells; assay type: cell-based; conditions: antagonist mode, test article 1 μM, +Poly(I:C) 50 ng/ml, No Sample 14, Control− 1
T1 construct: expressed in transfected cells; host or cells: HEK293
T1 sequence (O15455 24-904): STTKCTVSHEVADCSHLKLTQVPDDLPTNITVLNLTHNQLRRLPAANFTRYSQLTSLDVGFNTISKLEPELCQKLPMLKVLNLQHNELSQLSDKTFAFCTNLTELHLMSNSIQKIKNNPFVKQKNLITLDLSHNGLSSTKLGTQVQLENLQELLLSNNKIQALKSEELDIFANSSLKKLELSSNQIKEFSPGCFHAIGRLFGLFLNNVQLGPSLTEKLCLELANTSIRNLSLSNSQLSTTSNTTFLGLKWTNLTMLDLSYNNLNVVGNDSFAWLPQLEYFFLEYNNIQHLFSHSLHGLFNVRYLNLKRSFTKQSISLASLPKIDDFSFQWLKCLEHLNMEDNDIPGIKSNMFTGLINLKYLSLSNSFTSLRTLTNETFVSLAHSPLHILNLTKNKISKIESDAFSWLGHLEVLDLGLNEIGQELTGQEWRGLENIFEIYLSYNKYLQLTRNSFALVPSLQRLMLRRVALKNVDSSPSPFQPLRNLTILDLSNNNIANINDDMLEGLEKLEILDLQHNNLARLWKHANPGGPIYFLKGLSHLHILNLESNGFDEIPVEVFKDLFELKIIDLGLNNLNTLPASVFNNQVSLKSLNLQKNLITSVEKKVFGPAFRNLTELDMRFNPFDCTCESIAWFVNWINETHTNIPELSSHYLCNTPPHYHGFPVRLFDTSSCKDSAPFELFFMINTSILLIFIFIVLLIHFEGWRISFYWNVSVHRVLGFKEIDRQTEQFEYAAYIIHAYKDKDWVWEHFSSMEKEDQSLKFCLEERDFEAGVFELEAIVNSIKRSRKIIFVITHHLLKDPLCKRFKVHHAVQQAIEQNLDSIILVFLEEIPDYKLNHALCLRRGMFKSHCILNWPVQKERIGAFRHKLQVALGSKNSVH
Description: (§1) Toll-Like Receptor (TLR), NOD-Like Receptor (NLR) and C-Type Lectin Receptor (CLR) stimulation were tested by assessing NF-κB activation in HEK293 cells expressing a given TLR, NLR or CLR. The activity of the test articles was tested at one concentration and compared to control ligands. These steps were performed in triplicate. hTLR3: Poly(I:C) HMW at 1 μg/mL Antagonist: 50 ng/mL. In a 96-well plate (200 μL total volume) containing the appropriate cells (50,000-75,000 cells/well), 20 μL of the test article or the positive control ligand was added to the wells. For the antagonist assay, the test article was incubated with the cells, at 37° C. with 5% CO2, for 30 minutes prior to the addition of the positive control ligand to the wells. The media added to the wells was designed for the detection of NF-κB induced SEAP expression. After a 16-24 hr incubation the optical density (OD) was read at 650 nm on a Molecular Devices SpectraMax 340PC absorbance detector. Fold induction (ratio of average induced value to average non-induced value) was determined for each TLR, NOD1, NOD2, Dectin-1a, Dectin-1b.

hTLR9 = target: T2, hTLR9 (Homo sapiens, UniProt Q9NR96); experiment: as above; assay type: cell-based; conditions: antagonist mode, test article 1 μM, +ODN 2006 500 ng/ml; No Sample 7, Control− 1
T2 construct: expressed in transfected cells; host or cells: HEK293
T2 sequence (Q9NR96 26-1032): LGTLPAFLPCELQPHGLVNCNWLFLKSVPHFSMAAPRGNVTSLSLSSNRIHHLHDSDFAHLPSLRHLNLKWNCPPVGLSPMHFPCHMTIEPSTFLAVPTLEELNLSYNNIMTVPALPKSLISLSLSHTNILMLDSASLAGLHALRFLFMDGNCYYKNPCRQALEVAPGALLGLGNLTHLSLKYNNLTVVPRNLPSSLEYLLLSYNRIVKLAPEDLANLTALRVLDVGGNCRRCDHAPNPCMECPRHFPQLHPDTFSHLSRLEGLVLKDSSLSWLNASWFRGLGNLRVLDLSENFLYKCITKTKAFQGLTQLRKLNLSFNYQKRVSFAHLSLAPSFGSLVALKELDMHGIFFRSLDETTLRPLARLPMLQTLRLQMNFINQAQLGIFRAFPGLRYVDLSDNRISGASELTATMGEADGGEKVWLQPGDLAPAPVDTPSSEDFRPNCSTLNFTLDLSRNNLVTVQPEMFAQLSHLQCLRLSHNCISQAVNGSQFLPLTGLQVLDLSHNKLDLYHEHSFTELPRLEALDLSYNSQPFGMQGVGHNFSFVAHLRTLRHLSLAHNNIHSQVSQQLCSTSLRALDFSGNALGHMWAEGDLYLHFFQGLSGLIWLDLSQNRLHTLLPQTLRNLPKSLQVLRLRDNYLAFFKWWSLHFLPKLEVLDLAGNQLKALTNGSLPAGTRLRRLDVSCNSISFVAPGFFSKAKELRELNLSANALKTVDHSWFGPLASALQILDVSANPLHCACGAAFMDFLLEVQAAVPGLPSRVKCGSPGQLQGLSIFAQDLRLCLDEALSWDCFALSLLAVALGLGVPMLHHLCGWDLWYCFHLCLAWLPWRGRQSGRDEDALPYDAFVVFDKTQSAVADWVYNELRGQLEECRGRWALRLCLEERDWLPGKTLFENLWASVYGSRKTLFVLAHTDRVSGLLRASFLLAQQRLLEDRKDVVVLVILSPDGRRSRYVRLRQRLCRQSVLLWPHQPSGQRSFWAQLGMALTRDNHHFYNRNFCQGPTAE
Description: as §1, with “triplicate. hTLR9: CpG ODN 2006” for “triplicate. hTLR3: Poly(I:C) HMW”, “Antagonist: 500” for “Antagonist: 50”

| Structure (SMILES) | Fold Induction (Human TLR3) | Fold Induction (Human TLR3; listed as Nor) | Fold Induction (hTLR9) | Fold Induction (Human TLR3; listed as Ami) |
| --- | --- | --- | --- | --- |
| CNCCC=C1c2ccccc2CCc2ccccc21 [Nortriptyline] | slight inhibitory effect | 12 | slight inhibitory effect |  |
| CN(C)CCC=C1c2ccccc2CCc2ccccc21 [Amitriptyline] | slight inhibitory effect |  | slight inhibitory effect | 12 |
